Test results taken from patent US9556169B2, “Compounds and compositions for the treatment of parasitic diseases” (NOVARTIS AG, priority 2012, dated 2017).
Where two headings read alike, the source gives them in different places.

How the values were obtained:
[1] = test system: Plasmodium berghei line expressing luciferase (Pb-luc) sporozoites; experiment: Liver stage P. berghei luciferase proliferation assay in CD81-GFP-HepG2 cells; type: cell-based
Description: Liver Stage P. berghei Luciferase Proliferation Assay
CD81-GFP-HepG2 cells (obtained from the lab of Dominique Mazier) were seeded into GNF custom Greiner plates (1536-well, white, TC-treated, solid bottom). A final density of 3000 cells/well was achieved by dispensing 5 ul per well of a 600,000 cells/mL resuspended in Assay Media (AM; phenol-red free DMEM, 2% FBS, 5×PSG) via a MicroFlo (Biotek; 5 ul dispense cassette). The seeded assay plates were incubated overnight at 37° C. in an incubator with 5% CO2. The following day, a 10 nL volume of compound was transferred acoustically (ECHO 525, Labcyte Inc.) to each well in the assay plate. Sporozoite forms of a Plasmodium berghei line expressing luciferase (Pb-luc) were dissected and purified from infected Anopheles stephensi mosquitoes (provided by the NYU insectary) as previously described by Meister et al. (Science, 2011). Purified sporozoites (spz) were stored at 250 spz/uL in chilled PBS supplemented with 3% BSA. 3 uL of Pb-luc spz solution was dispensed to each assay well using a Bottlevalve equipped with a custom, single-tip dispense head (GNF Systems). Assay plates were centrifuged at 330×g for 3 minutes to pellet the spz, then the assay plates were returned to the 37° C. incubator for 48 h. Luciferase signal, which corresponds with parasite proliferation, was detected by adding 2 uL of BrightGlo (Promega) to each well using the MicroFlo (Biotek; 1 ul cassette). Luminescence was immediately measured on an Envision MultiLabel Plate Reader (PerkinElmer).

[2] = test system: P. falciparum (NF54 or 3D7 strain); experiment: P. falciparum proliferation assay in infected human blood cells (SYBR Green); type: cell-based; settings: Plasmodium falciparum, Erythrocyte, read-out: EC50 (nM), inhibitory efficacy in delaying P. falciparum proliferation in infected human blood cells
Description: Assay for P. falciparum Proliferation in Infected Human Blood Cells
Compounds of the invention can be assayed to measure their capacity to inhibit proliferation of P. falciparum parasitemia in infected red blood cells. This parasite proliferation assay measures the increase in parasite DNA content using a DNA intercalating dye, SYBR Green® (INVITROGEN®) which has a high affinity for double stranded DNA.
NF54 or 3D7 P. falciparum strain is grown in complete culturing media until parasitemia reaches 3% to 8% with O+ human erythrocytes. […] 20 μl of screening media is dispensed into 384 well assay plates. 50 nl of compounds of the invention (in DMSO), including antimalarial controls (mefloquine, pyrimethamine and artemisinin), are then transferred into the assay plates, as well as DMSO alone to serve as a negative control for inhibition. Then 30 μl of a suspension of a NF54 or 3D7 P. falciparum infected erythrocytes in screening media is dispensed into the assay plates such that the final hematocrit is 2.5% with a final parasitemia of 0.3%. The plates are placed in a 37° C. incubator for 72 hours in a low oxygen environment containing 93% N2, 4% CO2, and 3% O2 gas mixture. 10 μl of lysis buffer (saponin, triton-X, EDTA) containing a 10× solution of SYBR Green I® in RPMI media is dispensed into the plates. The plates are lidded and kept at room temperature overnight for the lysis of the infected red blood cells. The fluorescence intensity is measured (excitation 425 nm, emission 530 nm) using the Envision™ system (Perkin Elmer). The percentage inhibition of 50%, EC50, is calculated for each compound.

[3] = read-out: EC50, P. berghei luciferase Proliferation Assay
[4] = values marked * in Table 2, CD81-GFP-HepG2 cells, 48 h, luminescence, read-out: EC50 (nM), P. berghei luciferase Proliferation Assay
[5] = infected human erythrocytes, 72 hours, SYBR Green fluorescence

CNC(=O)c1ccc(-c2cnn3ccc(C(=O)N(NC)c4ccc(C#N)cc4)cc23)cn1 [Example 92, 5-(5-(1-(4-cyanophenyl)-2-methylhydrazinecarbonyl)pyrazolo[1,5-a]pyridin-3-yl)-N-methyl picolinamide]
EC50 [1, 3]: ≤ 20 nM
EC50 [1, 4]: 15 nM
EC50 [2, 5]: 24 nM

CNC(=O)c1ccc(-c2cnn3ccc(N(C)C(=O)c4ccc(C#N)cn4)cc23)cc1 [Example 94, 5-cyano-N-methyl-N-(3-(4-(methylcarbamoyl)phenyl)pyrazolo[1,5-a]pyridin-5-yl)picolinamide]
EC50 [1, 3]: ≤ 20 nM
EC50 [1, 4]: 13 nM
EC50 [2, 5]: 17 nM

CCN(C(=O)c1ccn2ncc(-c3ccc(C(=O)NC)cc3)c2c1)c1ccc(F)cn1 [Example 95, N-ethyl-N-(5-fluoropyridin-2-yl)-3-(4-(methylcarbamoyl)phenyl)pyrazolo[1,5-a]pyridine-5-carboxamide]
EC50 [1, 3]: ≤ 20 nM
EC50 [1, 4]: 5 nM
EC50 [2, 5]: 23 nM

CCN(C(=O)c1ccn2ncc(-c3ccc(C(=O)NC)cc3)c2c1)c1ccc(C(F)(F)F)cn1 [Example 96, N-ethyl-3-(4-(methylcarbamoyl)phenyl)-N-(5-(trifluoromethyl)pyridin-2-yl)pyrazolo[1,5-a]pyridine-5-carboxamide]
EC50 [1, 3]: ≤ 20 nM
EC50 [1, 4]: 4 nM
EC50 [2, 5]: 12 nM

CNC(=O)c1ccc(-c2cnn3ccc(C(=O)N(c4ccc(C#N)cn4)C4CC4)cc23)nc1 [Example 133, N-(5-Cyanopyridin-2-yl)-N-cyclopropyl-3-(5-(methylcarbamoyl)pyridin-2-yl)pyrazolo[1,5-a]pyridine-5-carboxamide]
EC50 [1, 4]: 34 nM
EC50 [2, 5]: 58 nM

CNC(=O)c1ccc(-c2cnn3ccc(C(=O)N(c4ccc(C)cn4)C4CC4)cc23)cc1 [Example 136, N-Cyclopropyl-3-(4-(methylcarbamoyl)phenyl)-N-(5-methylpyridin-2-yl)pyrazolo[1,5-a]pyridine-5-carboxamide]
EC50 [1, 4]: 10 nM

CNC(=O)c1ccc(-c2cnn3ccc(C(=O)N(c4ccc(C#N)cc4)C4CC4)cc23)cn1 [Example 137, N-(4-Cyanophenyl)-N-cyclopropyl-3-(6-(methylcarbamoyl)pyridin-3-yl)pyrazolo[1,5-a]pyridine-5-carboxamide]
EC50 [1, 4]: 10 nM
EC50 [2, 5]: 12 nM

CNC(=O)c1ccc(-c2cnn3ccc(C(=O)N(c4ccc(C#N)cc4)C4CC4)cc23)nc1 [Example 141, N-(4-Cyanophenyl)-N-cyclopropyl-3-(5-(methylcarbamoyl)pyridin-2-yl)pyrazolo[1,5-a]pyridine-5-carboxamide]
EC50 [1, 4]: 17 nM
EC50 ([2]; 72 h): 65 nM

CNC(=O)c1ccc(-c2cnn3ccc(C(=O)N(c4ccc(Cl)cc4)C4CC4)cc23)cn1 [Example 143, N-(4-Chlorophenyl)-N-cyclopropyl-3-(6-(methylcarbamoyl)pyridin-3-yl)pyrazolo[1,5-a]pyridine-5-carboxamide]
EC50 [1, 4]: 7 nM
EC50 [2, 5]: 12 nM

CNC(=O)c1ccc(-c2cnn3ccc(C(=O)N(c4ccc(C#N)cn4)C4CCC4)cc23)cn1 [Example 144, N-(5-Cyanopyridin-2-yl)-N-cyclobutyl-3-(6-(methylcarbamoyl)pyridin-3-yl)pyrazolo[1,5-a]pyridine-5-carboxamide]
EC50 [1, 4]: 22 nM
EC50 [2, 5]: 27 nM

CNC(=O)c1ccc(-c2cnn3ccc(C(=O)N(c4ccc(C#N)cc4)C4CCC4)cc23)cn1 [Example 145, N-(4-Cyanophenyl)-N-cyclobutyl-3-(6-(methylcarbamoyl)pyridin-3-yl)pyrazolo[1,5-a]pyridine-5-carboxamide]
EC50 [1, 4]: 8 nM
EC50 [2, 5]: 12 nM

CNC(=O)c1ccc(-c2cnn3ccc(C(=O)N(c4ccc(C#N)cc4)C(C)C)cc23)cn1 [Example 146, N-(4-Cyanophenyl)-N-isopropyl-3-(6-(methylcarbamoyl)pyridin-3-yl)pyrazolo[1,5-a]pyridine-5-carboxamide]
EC50 [1, 4]: 20 nM
EC50 [2, 5]: 45 nM

CNC(=O)c1ccc(-c2cnn3ccc(N(C(=O)c4ccc(C#N)cn4)C4CC4)cc23)cc1 [Example 147, 5-Cyano-N-cyclopropyl-N-(3-(4-(methylcarbamoyl)phenyl)pyrazolo[1,5-a]pyridin-5-yl) picolinamide]
EC50 [1, 4]: 151 nM
EC50 [2, 5]: 814 nM

CNC(=O)c1ccc(-c2cnn3ccc(C(=O)N(c4ccc(C#N)cn4)C(C)C)cc23)cn1 [Example 148, N-(5-Cyanopyridin-2-yl)-N-isopropyl-3-(6-(methylcarbamoyl)pyridin-3-yl)pyrazolo[1,5-a]pyridine-5-carboxamide]
EC50 [1, 4]: 18 nM
EC50 [2, 5]: 67 nM

CNC(=O)c1ccc(-c2cnn3ccc(C(=O)N(c4ccc(C#N)c(OC)n4)C4CC4)cc23)cc1 [Example 149, N-(5-Cyano-6-methoxypyridin-2-yl)-N-cyclopropyl-3-(4-(methylcarbamoyl)phenyl)pyrazolo[1,5-a]pyridine-5-carboxamide]
EC50 [1, 4]: 1 nM
EC50 [2, 5]: 4 nM

CCN(C(=O)c1ccn2ncc(-c3ccc(C(=O)NC)nc3)c2c1)c1ccc(C#N)cn1 [Example 150, N-(5-cyanopyridin-2-yl)-N-ethyl-3-(6-[methylcarbamoyl]pyridin-3-yl)pyrazolo[1,5-a]pyridine-5-carboxamide]
EC50 [1, 4]: 19 nM
EC50 [2, 5]: 51 nM

CNC(=O)c1ccc(-c2cnn3ccc(C(=O)N(c4ccc(F)cn4)C(C)C)cc23)cc1 [Example 151, N-(5-fluoropyridin-2-yl)-N-isopropyl-3-(4-(methylcarbamoyl)phenyl)pyrazolo[1,5-a]pyridine-5-carboxamide]
EC50 [1, 4]: 7 nM
EC50 [2, 5]: 67 nM

CNC(=O)c1ccc(-c2cnn3ccc(C(=O)N(c4ccc(C(F)(F)F)cn4)C(C)C)cc23)cn1 [Example 152, N-Isopropyl-3-(6-(methylcarbamoyl)pyridin-3-yl)-N-(5-(trifluoromethyl)pyridin-2-yl)pyrazolo[1,5-a]pyridine-5-carboxamide]
EC50 [1, 4]: 182 nM
EC50 [2, 5]: 228 nM

CNC(=O)c1ccc(-c2cnn3ccc(C(=O)N(c4ccc(C(F)(F)F)cn4)C(C)C)cc23)cc1 [Example 153, N-Isopropyl-3-(4-(methylcarbamoyl)phenyl)-N-(5-(trifluoromethyl)pyridin-2-yl)pyrazolo[1,5-a]pyridine-5-carboxamide]
EC50 [1, 4]: 16 nM
EC50 [2, 5]: 88 nM

CNC(=O)c1ccc(-c2cnn3ccc(C(=O)N(c4ccc(C#N)cn4)C(C)C)cc23)nc1 [Example 154, N-(5-cyanopyridin-2-yl)-N-isopropyl-3-(5-(methylcarbamoyl)pyridin-2-yl)pyrazolo[1,5-a]pyridine-5-carboxamide]
EC50 [1, 4]: 36 nM
EC50 ([2]; 72 h): 200 nM

CNC(=O)c1ccc(-c2cnn3ccc(C(=O)N(c4ccc(C#N)cn4)C4CCC4)cc23)nc1 [Example 155, N-(5-Cyanopyridin-2-yl)-N-cyclobutyl-3-(5-(methylcarbamoyl)pyridin-2-yl)pyrazolo[1,5-a]pyridine-5-carboxamide]
EC50 [1, 4]: 21 nM
EC50 ([2]; 72 h): 82 nM

CNC(=O)c1ccc(-c2cnn3ccc(C(=O)N(c4ccc(F)cn4)C(C)C)cc23)cn1 [Example 156, N-(5-fluoropyridin-2-yl)-N-isopropyl-3-(6-(methylcarbamoyl)pyridin-3-yl)pyrazolo[1,5-a]pyridine-5-carboxamide]
EC50 [1, 4]: 54 nM
EC50 [2, 5]: 210 nM

CCN(C(=O)c1ccn2ncc(-c3ccc(C(=O)NC)nc3)c2c1)c1ccc(C(F)(F)F)cn1 [Example 157, N-ethyl-3-(6-(methylcarbamoyl)pyridin-3-yl)-N-(5-(trifluoromethyl)pyridin-2-yl)pyrazolo[1,5-a]pyridine-5-carboxamide]
EC50 [1, 4]: 60 nM
EC50 [2, 5]: 91 nM

CCN(C(=O)c1ccn2ncc(-c3ccc(S(C)(=O)=O)cc3)c2c1)c1ccc(C#N)cn1 [Example 158, N-(5-cyanopyridin-2-yl)-N-ethyl-3-(4-(methylsulfonyl)phenyl)pyrazolo[1,5-a]pyridine-5-carboxamide]
EC50 [1, 4]: 11 nM
EC50 [2, 5]: 111 nM
